Measured values from patent publication US20200390100A1, “SUBSTITUTED N-HETEROCYCLYL- AND N-HETEROARYL-TETRAHYDROPYRIMIDINONES AND THE SALTS THEREOF, AND THE USE OF SAME AS HERBICIDAL ACTIVE SUBSTANCES” (Bayer Aktiengesellschaft, priority 2017, published 2020).

Assays:
Assay type in all cases: in vivo
Digitaria sanguinalis [1] = experiment: Post-emergence herbicidal action, greenhouse, 320 g/ha; conditions: application rate 320 g/ha, rated visually after about 3 weeks vs untreated controls
Method in brief: (§1)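 Plants treated post-emergence at the one-leaf stage, 2 to 3 weeks after sowing in sandy loam, with WP or EC formulations plus 0.5% additive at 320 g/ha. Visual rating about 3 weeks later versus untreated controls (100% = dead, 0% = like control).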

Hordeum murinum [2] = experiment: as above; conditions: application rate 320 g/ha, rated visually after about 3 weeks vs untreated controls
Method in brief: as §1

Pharbitis purpurea [3] = experiment: as above; conditions: application rate 320 g/ha, rated visually after about 3 weeks vs untreated controls
Method in brief: as §1

Abutilon theophrasti [4] = experiment: Pre-emergence herbicidal action, greenhouse, 320 g/ha; conditions: application rate 320 g/ha, scored visually after about 3 weeks vs untreated controls
Method in brief: (§2)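 Visual % damage versus untreated pots was read about 3 weeks after treatment, where 0% means growth as in controls and 100% means dead plants. Compounds were applied as WP or EC in water plus 0.5% additive onto the covering soil over freshly sown seeds.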

Alopecurus myosuroides = experiment: as above; conditions: application rate 320 g/ha, scored visually after about 3 weeks vs untreated controls
Method in brief: as §2

Amaranthus retroflexus [5] = experiment: as above; conditions: application rate 320 g/ha, scored visually after about 3 weeks vs untreated controls
Method in brief: as §2

Avena fatua = experiment: as above; conditions: application rate 320 g/ha, scored visually after about 3 weeks vs untreated controls
Method in brief: as §2

Digitaria sanguinalis [6] = experiment: as above; conditions: application rate 320 g/ha, Table B9
Method in brief: as §2

Echinochloa crus-galli [7] = experiment: as above; conditions: application rate 320 g/ha, scored visually after about 3 weeks vs untreated controls
Method in brief: as §2

Hordeum murinum [8] = experiment: as above; conditions: application rate 320 g/ha, Table B14
Method in brief: as §2

Matricaria inodora [9] = experiment: as above; conditions: application rate 320 g/ha, scored visually after about 3 weeks vs untreated controls
Method in brief: as §2

Polygonum convolvulus [10] = experiment: as above; conditions: application rate 320 g/ha, scored visually after about 3 weeks vs untreated controls
Method in brief: as §2

Setaria viridis [11] = experiment: as above; conditions: application rate 320 g/ha, Table B11
Method in brief: as §2

Stellaria media [12] = experiment: as above; conditions: application rate 320 g/ha, scored visually after about 3 weeks vs untreated controls
Method in brief: as §2

Viola tricolor [13] = experiment: as above; conditions: application rate 320 g/ha, Table B8
Method in brief: as §2

Amaranthus retroflexus [14] = experiment: Herbicidal post-emergence action (Part 2), 1280 g/ha; conditions: application rate 1280 g/ha, rated visually after about 3 weeks, Table C5
Method in brief: (§3)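 Scoring: visual, % activity against untreated controls after ~3 weeks, with death counted as 100%. Application was a post-emergence foliar spray to one-leaf-stage weeds in greenhouse pots.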

Echinochloa crus-galli [15] = experiment: as above; conditions: post-emergence (Part 2), application rate 1280 g/ha, rated visually after about 3 weeks vs untreated controls
Method in brief: as §3

Matricaria inodora [16] = experiment: as above; conditions: application rate 1280 g/ha, rated visually after about 3 weeks, Table C6
Method in brief: as §3

Stellaria media [17] = experiment: as above; conditions: application rate 1280 g/ha, rated visually after about 3 weeks, Table C7
Method in brief: as §3

Amaranthus retroflexus [18] = experiment: Herbicidal pre-emergence action (Part 2), 1280 g/ha; conditions: application rate 1280 g/ha, scored visually after about 3 weeks, Table D6
Method in brief: (§4)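 In this greenhouse test, covered seeds received an aqueous WP or EC spray on the soil surface. Damage, 0–100% relative to controls, was judged by eye after about 3 weeks.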

Echinochloa crus-galli [19] = experiment: as above; conditions: application rate 1280 g/ha, scored visually after about 3 weeks, Table D1
Method in brief: as §4

Matricaria inodora [20] = experiment: as above; conditions: application rate 1280 g/ha, scored visually after about 3 weeks, Table D7
Method in brief: as §4

Poa annua [21] = experiment: as above; conditions: application rate 1280 g/ha, scored visually after about 3 weeks, Table D3
Method in brief: as §4

Stellaria media [22] = experiment: as above; conditions: application rate 1280 g/ha, scored visually after about 3 weeks, Table D8
Method in brief: as §4

Abutilon theophrasti [23] = experiment: Post-emergence herbicidal action, greenhouse, 320 g/ha; conditions: application rate 320 g/ha, rated visually after about 3 weeks vs untreated controls
Method in brief: as §1

Amaranthus retroflexus [24] = experiment: as above; conditions: application rate 320 g/ha, rated visually after about 3 weeks vs untreated controls
Method in brief: as §1

Matricaria inodora [25] = experiment: as above; conditions: application rate 320 g/ha, rated visually after about 3 weeks vs untreated controls
Method in brief: as §1

Polygonum convolvulus [26] = experiment: as above; conditions: application rate 320 g/ha, rated visually after about 3 weeks vs untreated controls
Method in brief: as §1

Setaria viridis [27] = experiment: as above; conditions: application rate 320 g/ha, rated visually after about 3 weeks vs untreated controls
Method in brief: as §1

Stellaria media [28] = experiment: as above; conditions: application rate 320 g/ha, rated visually after about 3 weeks vs untreated controls
Method in brief: as §1

Viola tricolor [29] = experiment: as above; conditions: application rate 320 g/ha, rated visually after about 3 weeks vs untreated controls
Method in brief: as §1

Pharbitis purpurea [30] = experiment: Pre-emergence herbicidal action, greenhouse, 320 g/ha; conditions: application rate 320 g/ha, Table B12
Method in brief: as §2

Veronica persica = experiment: as above; conditions: application rate 320 g/ha, Table B13
Method in brief: as §2

Abutilon theophrasti [31] = experiment: Herbicidal pre-emergence action (Part 2), 1280 g/ha; conditions: application rate 1280 g/ha, scored visually after about 3 weeks, Table D5
Method in brief: as §4

Lolium rigidum = experiment: as above; conditions: application rate 1280 g/ha, scored visually after about 3 weeks, Table D2
Method in brief: as §4

Setaria viridis [32] = experiment: as above; conditions: application rate 1280 g/ha, scored visually after about 3 weeks, Table D4
Method in brief: as §4

Abutilon theophrasti [33] = experiment: Herbicidal post-emergence action (Part 2), 1280 g/ha; conditions: application rate 1280 g/ha, rated visually after about 3 weeks, Table C4
Method in brief: as §3

Poa annua [34] = experiment: as above; conditions: application rate 1280 g/ha, rated visually after about 3 weeks, Table C2
Method in brief: as §3

Row | Structure (SMILES) | Digitaria sanguinalis (efficacy in %) (Digitaria sanguinalis [1]) [%] | Hordeum murinum (efficacy in %) (Hordeum murinum [2]) [%] | Pharbitis purpurea (efficacy in %) (Pharbitis purpurea [3]) [%] | Abutilon theophrasti (efficacy in %) (Abutilon theophrasti [4]) [%] | Alopecurus myosuroides (efficacy in %) (Alopecurus myosuroides) [%] | Amaranthus retroflexus (efficacy in %) (Amaranthus retroflexus [5]) [%] | Avena fatua (efficacy in %) (Avena fatua) [%] | Echinochloa crus-galli (efficacy in %) (Echinochloa crus-galli [7]) [%] | Polygonum convolvulus (efficacy in %) (Polygonum convolvulus [10]) [%] | Stellaria media (efficacy in %) (Stellaria media [12]) [%] | Viola tricolor (efficacy in %) (Viola tricolor [13]) [%] | Amaranthus retroflexus (Amaranthus retroflexus [18]) [%] | Echinochloa crus-galli (Echinochloa crus-galli [19]) [%] | Matricaria inodora (Matricaria inodora [20]) [%] | Poa Annua (Poa annua [21]) [%] | Stellaria media (Stellaria media [22]) [%] | Abutilon theophrasti (efficacy in %) (Abutilon theophrasti [23]) [%] | Amaranthus retroflexus (efficacy in %) (Amaranthus retroflexus [24]) [%] | Matricaria inodora (efficacy in %) (Matricaria inodora [25]) [%] | Stellaria media (efficacy in %) (Stellaria media [28]) [%] | also measured
1 | CC(=O)OC1CC(C)N(C)C(=O)N1c1cc(C(C)(C)C)on1 (mixture of isomers) [I.42-162] | 100 | 90 | 100 | 100 | 90 | 100 | 80 | 80 | 90 | 100 | 90 | 100 | 100 | 100 | 100 | 100 |  |  |  |  | Digitaria sanguinalis (efficacy in %) (Digitaria sanguinalis [6]): 80%; Hordeum murinum (efficacy in %) (Hordeum murinum [8]): 90%; Matricaria inodora (efficacy in %) (Matricaria inodora [9]): 100%; Setaria viridis (efficacy in %) (Setaria viridis [11]): 100%; Amaranthus retroflexus (Amaranthus retroflexus [14]): 100%; Echinochloa crus-galli (Echinochloa crus-galli [15]): 100%; Matricaria inodora (Matricaria inodora [16]): 100%; Stellaria media (Stellaria media [17]): 100%
2 | CN1CCC(OC(=O)C(C)(C)C)N(c2cc(C(C)(C)C)on2)C1=O (stereo not drawn) [I.6-162] |  | 90 | 90 | 100 | 90 | 100 | 90 | 100 | 90 | 100 | 100 |  |  |  |  |  | 100 | 80 | 100 | 100 | Polygonum convolvulus (efficacy in %) (Polygonum convolvulus [26]): 100%; Setaria viridis (efficacy in %) (Setaria viridis [27]): 100%; Viola tricolor (efficacy in %) (Viola tricolor [29]): 100%; Hordeum murinum (efficacy in %) (Hordeum murinum [8]): 90%; Matricaria inodora (efficacy in %) (Matricaria inodora [9]): 100%; Pharbitis purpurea (efficacy in %) (Pharbitis purpurea [30]): 90%; Setaria viridis (efficacy in %) (Setaria viridis [11]): 100%; Veronica persica (efficacy in %) (Veronica persica): 100%
3 | CCC(=O)OC1CC2CCCN2C(=O)N1c1cc(C(C)(C)C)on1 (stereo not drawn) [I.123-162] | 100 |  |  |  |  |  |  |  |  |  |  | 100 | 100 | 100 | 100 | 100 | 100 | 100 | 80 | 100 | Polygonum convolvulus (efficacy in %) (Polygonum convolvulus [26]): 100%; Viola tricolor (efficacy in %) (Viola tricolor [29]): 100%; Abutilon theophrasti (Abutilon theophrasti [31]): 100%; Lolium rigidum (Lolium rigidum): 100%; Setaria viridis (Setaria viridis [32]): 100%
4 | CCCC(=O)OC1CC2CCCN2C(=O)N1c1cc(C(C)(C)C)on1 (stereo not drawn) [I.126-162] |  |  |  |  |  |  |  |  |  |  |  | 100 | 100 | 100 | 100 | 100 |  |  |  |  | Abutilon theophrasti (Abutilon theophrasti [33]): 100%; Amaranthus retroflexus (Amaranthus retroflexus [14]): 100%; Echinochloa crus-galli (Echinochloa crus-galli [15]): 90%; Matricaria inodora (Matricaria inodora [16]): 100%; Poa Annua (Poa annua [34]): 100%; Stellaria media (Stellaria media [17]): 100%; Abutilon theophrasti (Abutilon theophrasti [31]): 100%; Lolium rigidum (Lolium rigidum): 100%; Setaria viridis (Setaria viridis [32]): 100%
5 | CN1CC(F)(F)C(O)N(c2cc(C(C)(C)C)on2)C1=O (stereo not drawn) [I.141-162] | 100 |  |  | 90 |  | 100 | 80 |  | 90 | 100 | 90 |  |  |  |  |  | 100 | 90 | 80 | 100 | Setaria viridis (efficacy in %) (Setaria viridis [27]): 100%
